Source: patent publication US8609849B1, “Hydroxylated sulfamides exhibiting neuroprotective action and their method of use” (Fox Chase Chemical Diversity Center, Inc., priority 2010, dated 2013)

tested on: Hippocampal Cultures; assay: Neuroprotection from hydrogen peroxide (oxidative stress), propidium iodide assay; type: cell-based; settings: Rattus norvegicus; 10 μM hydrogen peroxide, hippocampal cultures, propidium iodide (cell death); read-out: NP from HP PI EC50
From the text: (§1) Cell cultures: All compounds are screened with dissociated hippocampal cultures derived from embryonic day 18 rats as the primary test system. With this preparation, primary neurons are used to test for toxicity as well as neuroprotection in a highly relevant experimental system to epilepsy. In brief, hippocampal tissue are obtained commercially through Brain Bits (Springfield, Ill.) and cultures prepared as previously described by Brewer (Brewer, G. J. Serum-free B27/neurobasal medium supports differentiated growth of neurons from the striatum, substantia nigra, septum, cerebral cortex, cerebellum and dentate gyms, J. Neurosci. Res. 1995, 42, 674-683.). The hippocampal neurons are platted at low density (10,000 cell/well) in a 96-well format and maintained in serum-free medium consisting of Neurobasal Medium supplemented with B27 and GlutaMAX (Gibco). Pre-coated poly-L-lysine coated plates are used because of the preferential adherence and survival of hippocampal neurons on this matrix support.
(§2) Potent neuroprotection is the distinguishing characteristic that separates this program's anticonvulsants from all other commercial drugs for epilepsy. The experimental details and the rationale for the implemented assays are essential in differentiating these compounds from that of others. The central objective of all neuroprotective assays was their relevancy to excitotoxicity and oxidative stress related to epilepsy. Both the amount of glutamate and hydrogen peroxide used in the assays, as well as the time of treatment and duration of the experiment, were designed to be relevant to epilepsy. Further, all time parameters employed in these studies were empirically determined to be within the limits of reversible toxic events, yet using amounts of glutamate and hydrogen peroxide that were relevant to the disease. In regard to glutamate toxicity, a critical feature was the duration of treatment of the hippocampal neurons. The rational for using a short 5 min treatment with glutamate was based on the observation of Randall and Thayer (Randall, R. D.; Thayer, S. A. Glutamate-induced calcium transient triggers calcium overload and neurotoxicity in rat hippocampal neurons, J. Neurosci. 1992, 12, 1882-1895). […] The rationale is that this intense burst of glutamate and resulting calcium overload is relevant to seizures and therefore was important data to capture in the screening assay. The amount of glutamate (30 μM) employed in our screening was based on the basal levels of glutamate observed in microdialysis measurements of hippocampus from epileptogenic patients (Cavus et al. Decreased hippocampal volume on MRI is associated with increased extracellular glutamate in epilepsy patients, Epilepsia, 2008, 49, 1358-1366.). In regard to hydrogen peroxide, the amount employed (10 μM) was detected in the hippocampus of rats after kainate-induced status epilepticus (Jarrett et. al., Mitochondrial DNA damage and impaired base excision repair during epileptogenesis, Neurobiol. Dis. 2008, 30, 130-138). To produce neural damage and death with these amounts of glutamate and hydrogen peroxide, the cultures were changed to a medium with significant depletion of antioxidant components in the defined medium supplement B-27 just prior to treatment with the compounds. This was performed to obtain a significant and reproducible toxic signal in the hippocampal neurons and because loss of antioxidant control may be a component of epileptogenesis (Waldbaum and Patel, Mitochondria, oxidative stress and temporal lobe epilepsy, Epilepsy Res. 2010 88, 23-45.; Wu et al., Mitochondrial DNA mutation-elicited oxidative stress, oxidative damage, and altered gene expression in cultured cells of patients with MERRF syndrome, Mol. Neurobiol. 2010, 41, 256-266.). Neuroprotection studies with hydrogen peroxide were conducted with cultures that were between day 12 and day 18. Studies of neuroprotection glutamate were conducted between day 19 and day 22. […]

Compound | EC50 [µM]
CC(O)(CCNS(N)(=O)=O)c1ccccc1F (stereo not drawn) [Example 10, N-[3-(2-Fluoro-phenyl)-3-hydroxy-butyl]-sulfamide] | 300
NS(=O)(=O)NCC[C@@H](O)c1ccccc1Cl [Example 17, (R)-3-(2-Chloro-phenyl)-3-hydroxypropyl-1-sulfamide] | > 300
NS(=O)(=O)NCCC(O)c1ccccc1Br (stereo not drawn) [Example 13, 3-(2-bromo-phenyl)-3-hydroxypropyl-1-sulfamide] | 10
NS(=O)(=O)NCCC(O)c1ccccc1 (stereo not drawn) [Example 9, N-(3-phenyl-3-hydroxy-propyl)-sulfamide] | > 300
NS(=O)(=O)NCCC(O)c1ccc(F)cc1Cl (stereo not drawn) [Example 8, N-[3-(2-Chloro-4-fluoro-phenyl)-3-hydroxy-propyl]-sulfamide] | > 300
CCc1ccccc1C(O)CCNS(N)(=O)=O (stereo not drawn) [Example 12, 3-(2-Ethyl-phenyl)-3-hydroxypropyl-1-sulfamide] | 0.01
NS(=O)(=O)NCC[C@H](O)c1ccccc1Cl [Example 18, (S)-3-(2-Chloro-phenyl)-3-hydroxypropyl-1-sulfamide] | 0.001

tested on: Hippocampal Cultures; assay: Neuroprotection from glutamate (excitotoxicity), CFDA assay; type: cell-based; settings: Rattus norvegicus, read-out: NP from Glutamate CFDA EC50
From the text: as §1, §2

Compound | EC50 [µM]
NS(=O)(=O)NCCC(O)c1ccccc1[N+](=O)[O-] (stereo not drawn) [Example 21, 3-(2-Nitro-phenyl)-3-hydroxypropyl-1-sulfamide] | > 300
NS(=O)(=O)NCCC(O)c1ccccc1C(F)(F)F (stereo not drawn) [Example 20, 3-(2-Trifluoromethyl-phenyl)-3-hydroxypropyl-1-sulfamide] | > 300

same assay, conditions: Rattus norvegicus; 30 μM glutamate, hippocampal cultures, CFDA (neuronal viability); read-out: NP from Glutamate CFDA EC50

Compound | EC50 [µM]
CC(O)(CCNS(N)(=O)=O)c1ccccc1F (stereo not drawn) [Example 10, N-[3-(2-Fluoro-phenyl)-3-hydroxy-butyl]-sulfamide] | 10
NS(=O)(=O)NCCC(O)c1ccccc1-c1cncc(Cl)c1 (stereo not drawn) [Example 24, 3-[2-(5-Chloro-pyridine-3-yl)-phenyl]-3-hydroxypropyl-1-sulfamide] | 10
Cc1ccccc1C(O)CCNS(N)(=O)=O (stereo not drawn) [Example 11, 3-(2-Methyl-phenyl)-3-hydroxypropyl-1-sulfamide] | > 300
NS(=O)(=O)NCCC(O)c1ccccc1Br (stereo not drawn) [Example 13, 3-(2-bromo-phenyl)-3-hydroxypropyl-1-sulfamide] | 10
NS(=O)(=O)NCCC(O)c1ccccc1 (stereo not drawn) [Example 9, N-(3-phenyl-3-hydroxy-propyl)-sulfamide] | 300
NS(=O)(=O)NCCC(O)c1ccc(F)cc1Cl (stereo not drawn) [Example 8, N-[3-(2-Chloro-4-fluoro-phenyl)-3-hydroxy-propyl]-sulfamide] | > 300
CCc1ccccc1C(O)CCNS(N)(=O)=O (stereo not drawn) [Example 12, 3-(2-Ethyl-phenyl)-3-hydroxypropyl-1-sulfamide] | 0.01
NS(=O)(=O)NCCC(O)c1ccccc1-c1ccccc1 (stereo not drawn) [Example 23, 3-(2-Phenyl-phenyl)-3-hydroxypropyl-1-sulfamide] | 10
NS(=O)(=O)NCC[C@H](O)c1ccccc1Cl [Example 18, (S)-3-(2-Chloro-phenyl)-3-hydroxypropyl-1-sulfamide] | 1

tested on: Hippocampal Cultures; assay: Neuroprotection from hydrogen peroxide (oxidative stress), CFDA assay; type: cell-based; settings: Rattus norvegicus; 10 μM hydrogen peroxide, hippocampal cultures, CFDA (neuronal viability); read-out: NP from HP CFDA EC50
From the text: as §1, §2

Compound | EC50 [µM]
CC(O)(CCNS(N)(=O)=O)c1ccccc1F (stereo not drawn) [Example 10, N-[3-(2-Fluoro-phenyl)-3-hydroxy-butyl]-sulfamide] | 0.1
NS(=O)(=O)NCC[C@@H](O)c1ccccc1Cl [Example 17, (R)-3-(2-Chloro-phenyl)-3-hydroxypropyl-1-sulfamide] | > 300
NS(=O)(=O)NCCC(O)c1ccccc1Br (stereo not drawn) [Example 13, 3-(2-bromo-phenyl)-3-hydroxypropyl-1-sulfamide] | 300
NS(=O)(=O)NCCC(O)c1ccccc1 (stereo not drawn) [Example 9, N-(3-phenyl-3-hydroxy-propyl)-sulfamide] | > 300
NS(=O)(=O)NCCC(O)c1ccc(F)cc1Cl (stereo not drawn) [Example 8, N-[3-(2-Chloro-4-fluoro-phenyl)-3-hydroxy-propyl]-sulfamide] | > 300
CCc1ccccc1C(O)CCNS(N)(=O)=O (stereo not drawn) [Example 12, 3-(2-Ethyl-phenyl)-3-hydroxypropyl-1-sulfamide] | > 300
NS(=O)(=O)NCC[C@H](O)c1ccccc1Cl [Example 18, (S)-3-(2-Chloro-phenyl)-3-hydroxypropyl-1-sulfamide] | 0.001

tested on: Hippocampal Cultures; assay: Neuroprotection from glutamate (excitotoxicity), propidium iodide assay; type: cell-based; settings: Rattus norvegicus, read-out: NP from Glutamate PI EC50
From the text: as §1, §2

Compound | EC50 [µM]
NS(=O)(=O)NCCC(O)c1ccccc1[N+](=O)[O-] (stereo not drawn) [Example 21, 3-(2-Nitro-phenyl)-3-hydroxypropyl-1-sulfamide] | 10
NS(=O)(=O)NCCC(O)c1ccccc1C(F)(F)F (stereo not drawn) [Example 20, 3-(2-Trifluoromethyl-phenyl)-3-hydroxypropyl-1-sulfamide] | > 300

same assay, conditions: Rattus norvegicus; 30 μM glutamate, hippocampal cultures, propidium iodide (cell death); read-out: NP from Glutamate PI EC50

Compound | EC50 [µM]
CC(O)(CCNS(N)(=O)=O)c1ccccc1F (stereo not drawn) [Example 10, N-[3-(2-Fluoro-phenyl)-3-hydroxy-butyl]-sulfamide] | 10
NS(=O)(=O)NCCC(O)c1ccccc1-c1cncc(Cl)c1 (stereo not drawn) [Example 24, 3-[2-(5-Chloro-pyridine-3-yl)-phenyl]-3-hydroxypropyl-1-sulfamide] | > 300
Cc1ccccc1C(O)CCNS(N)(=O)=O (stereo not drawn) [Example 11, 3-(2-Methyl-phenyl)-3-hydroxypropyl-1-sulfamide] | > 300
NS(=O)(=O)NCCC(O)c1ccccc1Br (stereo not drawn) [Example 13, 3-(2-bromo-phenyl)-3-hydroxypropyl-1-sulfamide] | 100
NS(=O)(=O)NCCC(O)c1ccccc1 (stereo not drawn) [Example 9, N-(3-phenyl-3-hydroxy-propyl)-sulfamide] | > 300
NS(=O)(=O)NCCC(O)c1ccc(F)cc1Cl (stereo not drawn) [Example 8, N-[3-(2-Chloro-4-fluoro-phenyl)-3-hydroxy-propyl]-sulfamide] | 10
CCc1ccccc1C(O)CCNS(N)(=O)=O (stereo not drawn) [Example 12, 3-(2-Ethyl-phenyl)-3-hydroxypropyl-1-sulfamide] | 10
NS(=O)(=O)NCCC(O)c1ccccc1-c1ccccc1 (stereo not drawn) [Example 23, 3-(2-Phenyl-phenyl)-3-hydroxypropyl-1-sulfamide] | 300
NS(=O)(=O)NCC[C@H](O)c1ccccc1Cl [Example 18, (S)-3-(2-Chloro-phenyl)-3-hydroxypropyl-1-sulfamide] | 0.1
